Legend:
[1] = molecular target: Sodium-dependent noradrenaline transporter (Homo sapiens, UniProt P23975); test: DRUGMATRIX: Norepinephrine Transporter radioligand binding (ligand: [125I] RTI-55); format: cell membranes, MDCK, Membrane; details: mdck; Not Active = under 50% inhibition at 10 µM
Glycine receptor = Glycine receptor (Rattus norvegicus, UniProt P22771+P24524+P07727+P20781); format: cell membranes, Wistar, Spinal cord, Membrane; further: in other assays of this panel Not Active means under 50% inhibition at 10 µM
[2] = molecular target: T1, Muscarinic acetylcholine receptor M5 (Homo sapiens, UniProt P08912); format: cell membranes, CHO-K1, Membrane; details: cho-k1; further: in other assays of this panel Not Active means under 50% inhibition at 10 µM
T1 sequence (P08912 whole entry): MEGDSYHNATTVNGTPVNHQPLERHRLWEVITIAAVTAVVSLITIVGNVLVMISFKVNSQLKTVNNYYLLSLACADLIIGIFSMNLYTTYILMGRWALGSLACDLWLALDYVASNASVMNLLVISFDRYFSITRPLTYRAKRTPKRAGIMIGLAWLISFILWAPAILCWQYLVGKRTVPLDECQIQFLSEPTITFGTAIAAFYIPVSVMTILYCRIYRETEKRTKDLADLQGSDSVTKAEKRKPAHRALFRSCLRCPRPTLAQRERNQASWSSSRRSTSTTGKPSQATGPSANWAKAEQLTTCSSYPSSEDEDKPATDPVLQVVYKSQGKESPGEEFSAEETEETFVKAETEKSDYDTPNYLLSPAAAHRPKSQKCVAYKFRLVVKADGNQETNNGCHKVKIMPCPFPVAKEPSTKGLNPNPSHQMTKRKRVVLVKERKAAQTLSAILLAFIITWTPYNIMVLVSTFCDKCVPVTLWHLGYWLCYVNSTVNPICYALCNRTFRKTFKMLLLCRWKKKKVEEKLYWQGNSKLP

[3] = molecular target: T2, Neuropeptide Y receptor type 2 (Homo sapiens, UniProt P49146); format: cell membranes, Membrane; details: kan-ts; further: in other assays of this panel Not Active means under 50% inhibition at 10 µM
T2 sequence (P49146 whole entry): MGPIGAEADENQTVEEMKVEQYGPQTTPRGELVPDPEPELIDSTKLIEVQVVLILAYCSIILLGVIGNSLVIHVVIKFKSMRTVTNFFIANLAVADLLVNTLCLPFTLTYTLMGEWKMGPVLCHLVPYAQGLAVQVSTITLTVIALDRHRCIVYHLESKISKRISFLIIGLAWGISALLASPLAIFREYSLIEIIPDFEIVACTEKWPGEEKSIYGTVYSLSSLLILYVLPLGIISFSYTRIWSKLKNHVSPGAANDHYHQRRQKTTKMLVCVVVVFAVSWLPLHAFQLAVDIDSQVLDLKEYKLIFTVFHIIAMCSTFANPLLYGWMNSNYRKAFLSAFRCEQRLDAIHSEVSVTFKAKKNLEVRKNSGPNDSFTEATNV

[4] = molecular target: Platelet-activating factor receptor (Homo sapiens, UniProt P25105); test: biochemical; format: tissue-based; details: platelet; further: in other assays of this panel Not Active means under 50% inhibition at 10 µM
Cathepsin G = molecular target: T3, Cathepsin G (Homo sapiens, UniProt P08311); format: tissue-based; details: neutrophil
T3 sequence (P08311 whole entry): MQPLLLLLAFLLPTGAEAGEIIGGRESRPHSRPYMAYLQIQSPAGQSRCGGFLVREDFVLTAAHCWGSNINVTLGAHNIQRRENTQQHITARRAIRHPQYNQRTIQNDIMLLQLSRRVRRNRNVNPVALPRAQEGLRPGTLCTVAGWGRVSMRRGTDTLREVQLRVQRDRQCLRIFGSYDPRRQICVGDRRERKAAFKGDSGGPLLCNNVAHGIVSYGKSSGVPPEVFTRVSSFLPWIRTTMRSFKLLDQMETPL

[5] = molecular target: T4, Receptor-type tyrosine-protein phosphatase C (Homo sapiens, UniProt P08575); design: species or system Escherichia coli
T4 sequence (P08575 whole entry): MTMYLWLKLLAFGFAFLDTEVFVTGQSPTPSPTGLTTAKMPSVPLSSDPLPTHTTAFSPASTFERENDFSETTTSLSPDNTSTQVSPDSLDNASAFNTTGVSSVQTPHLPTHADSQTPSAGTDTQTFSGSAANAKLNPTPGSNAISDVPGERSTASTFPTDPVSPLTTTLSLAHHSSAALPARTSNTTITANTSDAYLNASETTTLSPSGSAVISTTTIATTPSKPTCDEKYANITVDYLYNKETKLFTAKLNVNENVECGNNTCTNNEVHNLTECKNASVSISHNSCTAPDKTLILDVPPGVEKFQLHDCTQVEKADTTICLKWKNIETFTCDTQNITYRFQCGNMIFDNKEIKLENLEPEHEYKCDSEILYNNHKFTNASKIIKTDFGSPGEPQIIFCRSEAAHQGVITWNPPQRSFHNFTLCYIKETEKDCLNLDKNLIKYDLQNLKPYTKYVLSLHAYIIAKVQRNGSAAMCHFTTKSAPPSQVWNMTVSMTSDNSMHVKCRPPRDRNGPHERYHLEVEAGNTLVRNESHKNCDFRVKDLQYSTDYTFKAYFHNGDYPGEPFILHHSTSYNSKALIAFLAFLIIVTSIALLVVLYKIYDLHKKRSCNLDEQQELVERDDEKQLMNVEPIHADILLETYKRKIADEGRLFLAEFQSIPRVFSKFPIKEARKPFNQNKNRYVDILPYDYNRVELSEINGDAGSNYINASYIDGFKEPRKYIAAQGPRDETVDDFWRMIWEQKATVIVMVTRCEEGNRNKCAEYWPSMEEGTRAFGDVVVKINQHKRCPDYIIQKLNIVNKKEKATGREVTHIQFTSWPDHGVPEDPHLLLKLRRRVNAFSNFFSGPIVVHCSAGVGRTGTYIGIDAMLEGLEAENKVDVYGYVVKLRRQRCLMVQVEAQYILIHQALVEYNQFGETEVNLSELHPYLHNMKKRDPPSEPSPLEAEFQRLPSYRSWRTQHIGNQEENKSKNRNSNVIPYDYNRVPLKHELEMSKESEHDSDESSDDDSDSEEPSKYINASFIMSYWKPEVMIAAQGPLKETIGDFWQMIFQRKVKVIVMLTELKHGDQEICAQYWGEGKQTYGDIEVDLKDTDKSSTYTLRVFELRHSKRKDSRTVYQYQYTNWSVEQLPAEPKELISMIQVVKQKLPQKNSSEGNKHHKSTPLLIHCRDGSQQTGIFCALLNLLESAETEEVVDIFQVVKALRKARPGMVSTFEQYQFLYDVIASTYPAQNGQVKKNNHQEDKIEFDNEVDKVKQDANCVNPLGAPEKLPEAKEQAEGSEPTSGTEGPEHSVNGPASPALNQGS

Measured: IC50

Chain of Sodium-dependent noradrenaline transporter (P23975 whole entry): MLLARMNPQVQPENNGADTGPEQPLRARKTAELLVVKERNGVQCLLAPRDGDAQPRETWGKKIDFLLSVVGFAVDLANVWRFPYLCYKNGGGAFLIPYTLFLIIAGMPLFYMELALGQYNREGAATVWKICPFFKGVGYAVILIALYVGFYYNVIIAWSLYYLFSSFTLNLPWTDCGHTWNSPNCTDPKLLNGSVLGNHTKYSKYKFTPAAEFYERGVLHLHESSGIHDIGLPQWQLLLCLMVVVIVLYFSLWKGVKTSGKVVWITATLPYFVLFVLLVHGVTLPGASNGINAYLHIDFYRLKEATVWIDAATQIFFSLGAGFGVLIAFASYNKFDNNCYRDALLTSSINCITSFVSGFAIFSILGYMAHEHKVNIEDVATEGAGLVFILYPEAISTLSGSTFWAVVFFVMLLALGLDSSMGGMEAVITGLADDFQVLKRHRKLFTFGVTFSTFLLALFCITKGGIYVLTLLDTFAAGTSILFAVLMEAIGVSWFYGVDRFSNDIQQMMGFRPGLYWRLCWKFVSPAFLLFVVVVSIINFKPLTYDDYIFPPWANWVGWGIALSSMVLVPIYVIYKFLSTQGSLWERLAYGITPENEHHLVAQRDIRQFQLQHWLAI
Chain of Platelet-activating factor receptor (P25105 whole entry): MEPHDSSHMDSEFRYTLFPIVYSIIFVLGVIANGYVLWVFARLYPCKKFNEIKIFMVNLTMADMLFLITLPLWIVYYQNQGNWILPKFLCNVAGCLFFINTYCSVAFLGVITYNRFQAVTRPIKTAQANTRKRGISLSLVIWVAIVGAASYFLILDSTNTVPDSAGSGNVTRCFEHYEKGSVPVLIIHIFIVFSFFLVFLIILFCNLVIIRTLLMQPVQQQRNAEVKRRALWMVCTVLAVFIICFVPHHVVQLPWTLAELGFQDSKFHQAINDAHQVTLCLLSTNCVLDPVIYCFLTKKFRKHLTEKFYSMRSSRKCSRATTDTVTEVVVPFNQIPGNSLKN

N=C(N)NCCCCNC(=N)N.O=S(=O)(O)O [ARCAINE SULFATE]
Not Active: all assays above

CCCCOC(=O)c1ccc(N)cc1 [BUTAMBEN]
Not Active: all assays above

CCOC(=O)c1ccc(N)cc1 [BENZOCAINE]
Not Active: all assays above

CC1=Nc2ccc(Cl)cc2S(=O)(=O)N1 [DIAZOXIDE]
Not Active: all assays above

COC(=O)[C@H](c1ccccc1Cl)N1CCc2sccc2C1 [CLOPIDOGREL]
Not Active: all assays above

O=c1cc(-c2ccccc2)oc2c1ccc1ccccc12 [ALPHA-NAPHTHOFLAVONE]
Not Active: all assays above

C=C1[C@@H]2CCC3[C@@](CC[C@@H]4[C@H](C(=O)O)C[C@@H](O[C@@H]5O[C@H](CO)[C@@H](OS(=O)(=O)[O-])[C@H](OS(=O)(=O)[O-])[C@H]5OC(=O)CC(C)C)C[C@@]34C)(C2)[C@@H]1O.[K+].[K+] (some centres undefined) [ATRACTYLOSIDE]
Not Active: all assays above

NS(=O)(=O)c1cc2c(cc1Cl)NCNS2(=O)=O [HYDROCHLOROTHIAZIDE]
Not Active: all assays above

COc1c(N2CCNC(C)C2)c(F)cc2c(=O)c(C(=O)O)cn(C3CC3)c12 (centres undefined) [GATIFLOXACIN]
Not Active: all assays above

CC[N+](CC)(CC)CCOc1cccc(OCC[N+](CC)(CC)CC)c1OCC[N+](CC)(CC)CC.[I-].[I-].[I-] [GALLAMINE TRIETHIODIDE]
Not Active: all assays above

Nc1nc(=O)[nH]cc1F [FLUCYTOSINE]
Not Active: all assays above

O=c1[nH]cc(F)c(=O)[nH]1 [FLUOROURACIL]
Not Active: all assays above

O=C(O)c1cn(C2CC2)c2cc(N3CCNCC3)c(F)cc2c1=O [CIPROFLOXACIN]
Not Active: all assays above

OCc1ccccc1 [BENZYL ALCOHOL]
Not Active: all assays above

CC1(C)[C@@H](O[C@H]2O[C@H](C(=O)O)[C@@H](O)[C@H](O)[C@H]2O[C@@H]2O[C@H](C(=O)O)[C@@H](O)[C@H](O)[C@H]2O)CC[C@]2(C)[C@H]3C(=O)C=C4[C@@H]5C[C@@](C)(C(=O)O)CC[C@]5(C)CC[C@@]4(C)[C@]3(C)CC[C@@H]12 [GLYCYRRHIZIN]
Not Active: all assays above

CNC(=O)Oc1ccc2c(c1)[C@]1(C)CCN(C)[C@@H]1N2C [PHYSOSTIGMINE]
Not Active: all assays above

CCCC[C@@H](CC)COC(=O)c1ccccc1C(=O)OC[C@@H](CC)CCCC [BIS(2-ETHYLHEXYL)PHTHALATE]
Not Active: all assays above
